# Data from patent US7767240B2, “Microbiological control in poultry processing” (priority 2001, dated 2010).
# Key:
# Experiment in all cases: Bacteria count per bird over 20-day storage (Example 4)
# Type in all cases: cell-based
# Conditions in all cases: pH 8
# [1] = test system: Escherichia coli ATCC 11229
# Protocol: (§1) A study was conducted to determine the effect of Clorox® bleach, and 1,3-dibromo-5,5-dimethylhydantoin (DBDMH) on carcass bacteria residual after 1.5 hour in a chill tank solution and spoilage 20-day shelf life longevity (caused by bacteria contamination). Tests were conducted at pH 8 (adjusted by trisodium phosphate). Skin pigmentation (Minolta Color Meter L value or Lightness, a value or redness and b value or yellowness) were determined before and post-processing.
# (§2) In general the study involved normal processing of 56-day-old birds, immersing carcasses first in a warm bath containing 10^4 per mL Escherichia coli, 10^4 per mL Salmonella enteritidis, 10^4 per mL Pseudomonas aeruginosa, 10^4 per mL Campylobacter jejuni, and 10^4 per mL spoilage bacteria each from […] strains (Listeria monocytogenes and Shigella sonnei). Carcass were then immersed in a chill tank “soup”, containing normal organic fluids (blood, fat, skin, and meat particles) and containing various disinfectants (termed test materials).
# (§3) A DBDMH stock solution and test solutions, a bacteria stock solution, and a “chicken soup” were prepared as in Example 3. In addition, the bacterial broth treatments, the whole bird wash sampling procedure, and the methodologies used for quantitative or qualitative determinations for bacterial organisms were conducted as in Example 3.
# (§4) In greater detail the trial events and experimental design used in this group of tests were as follows: • a) Test microorganisms used were: • Escherichia coli ATCC 11229 • Pseudomonas aeruginosa ATCC 15442 • Salmonella enteritidis ATCC 13076 • Shigella sonnei ATCC 9290 • Listeria monocytogenes ATCC 7644 • Campylobacter jejuni ATCC 29428 • b) Test Procedure: All test strains were grown individually at 35° C. for 24 hours in the media specified in Table 12. Cells were harvested by centrifugation at 10,000×g for 10 minutes and washed twice with Butterfield's Phosphate Buffer (BPB of pH 7.2). Cells were resuspended in BPB to obtain a cell suspension of approximately 1.0×10^8 CFU/mL for each microorganism. The target inoculum levels were approximately 10^6 CFU/mL in the final test solutions. In the cases of S. enteritidis and P. aeruginosa the species were washed by pouring into prepared sterile centrifuge tubes with cheesecloth filters. The culture was then pelleted and washed using above techniques and repeated 3 times. • c) The birds (56 days old) were processed under normal commercial conditions. • d) The bacteria were added to a large batch of the “chicken soup”, and then aliquots of the resultant mixture were distributed equally among the chill waters used for each test. Then the particular disinfectant composition under test was added to one of the chill waters. […]
# [2] = test system: Listeria monocytogenes ATCC 7644
# Protocol: as §1, §2, §3, §4
# [3] = test system: Shigella sonnei ATCC 9290
# Protocol: as §1, §2, §3, §4
smiles,measurement,setting,value
"CC1(C)C(=O)N(Br)C(=O)N1Br [DBDMH, 1,3-dibromo-5,5-dimethylhydantoin]","average bacteria count per bird, E. coli","[1]; Day 0, 10 ppm",861 per bird
same,"average bacteria count per bird, E. coli","[1]; Day 0, 20 ppm",22 per bird
same,"average bacteria count per bird, E. coli","[1]; Day 2, 10 ppm",966 per bird
same,"average bacteria count per bird, E. coli","[1]; Day 2, 20 ppm",31 per bird
same,"average bacteria count per bird, E. coli","[1]; Day 4, 10 ppm",1050 per bird
same,"average bacteria count per bird, E. coli","[1]; Day 4, 20 ppm",49 per bird
same,"average bacteria count per bird, E. coli","[1]; Day 6, 10 ppm",1124 per bird
same,"average bacteria count per bird, E. coli","[1]; Day 6, 20 ppm",100 per bird
same,"average bacteria count per bird, E. coli","[1]; Day 8, 10 ppm",1364 per bird
same,"average bacteria count per bird, E. coli","[1]; Day 8, 20 ppm",204 per bird
same,"average bacteria count per bird, E. coli","[1]; Day 10, 10 ppm",1621 per bird
same,"average bacteria count per bird, E. coli","[1]; Day 10, 20 ppm",401 per bird
same,"average bacteria count per bird, E. coli","[1]; Day 12, 10 ppm",2063 per bird
same,"average bacteria count per bird, E. coli","[1]; Day 12, 20 ppm",775 per bird
same,"average bacteria count per bird, E. coli","[1]; Day 14, 10 ppm",2581 per bird
same,"average bacteria count per bird, E. coli","[1]; Day 14, 20 ppm",1453 per bird
same,"average bacteria count per bird, E. coli","[1]; Day 16, 10 ppm",3005 per bird
same,"average bacteria count per bird, E. coli","[1]; Day 16, 20 ppm",2933 per bird
same,"average bacteria count per bird, E. coli","[1]; Day 18, 10 ppm",3617 per bird
same,"average bacteria count per bird, E. coli","[1]; Day 18, 20 ppm",3645 per bird
same,"average bacteria count per bird, E. coli","[1]; Day 20, 10 ppm",4460 per bird
same,"average bacteria count per bird, E. coli","[1]; Day 20, 20 ppm",4036 per bird
same,"average bacteria count per bird, L. monocytogenes","[2]; Day 0, 10 ppm",528 per bird
same,"average bacteria count per bird, L. monocytogenes","[2]; Day 0, 20 ppm",13 per bird
same,"average bacteria count per bird, L. monocytogenes","[2]; Day 2, 10 ppm",601 per bird
same,"average bacteria count per bird, L. monocytogenes","[2]; Day 2, 20 ppm",19 per bird
same,"average bacteria count per bird, L. monocytogenes","[2]; Day 4, 10 ppm",670 per bird
same,"average bacteria count per bird, L. monocytogenes","[2]; Day 4, 20 ppm",28 per bird
same,"average bacteria count per bird, L. monocytogenes","[2]; Day 6, 10 ppm",741 per bird
same,"average bacteria count per bird, L. monocytogenes","[2]; Day 6, 20 ppm",55 per bird
same,"average bacteria count per bird, L. monocytogenes","[2]; Day 8, 10 ppm",880 per bird
same,"average bacteria count per bird, L. monocytogenes","[2]; Day 8, 20 ppm",107 per bird
same,"average bacteria count per bird, L. monocytogenes","[2]; Day 10, 10 ppm",1096 per bird
same,"average bacteria count per bird, L. monocytogenes","[2]; Day 10, 20 ppm",218 per bird
same,"average bacteria count per bird, L. monocytogenes","[2]; Day 12, 10 ppm",1335 per bird
same,"average bacteria count per bird, L. monocytogenes","[2]; Day 12, 20 ppm",442 per bird
same,"average bacteria count per bird, L. monocytogenes","[2]; Day 14, 10 ppm",1564 per bird
same,"average bacteria count per bird, L. monocytogenes","[2]; Day 14, 20 ppm",843 per bird
same,"average bacteria count per bird, L. monocytogenes","[2]; Day 16, 10 ppm",1901 per bird
same,"average bacteria count per bird, L. monocytogenes","[2]; Day 16, 20 ppm",1646 per bird
same,"average bacteria count per bird, L. monocytogenes","[2]; Day 18, 10 ppm",2221 per bird
same,"average bacteria count per bird, L. monocytogenes","[2]; Day 18, 20 ppm",1985 per bird
same,"average bacteria count per bird, L. monocytogenes","[2]; Day 20, 10 ppm",2678 per bird
same,"average bacteria count per bird, L. monocytogenes","[2]; Day 20, 20 ppm",2238 per bird
same,"average bacteria count per bird, S. sonnei","[3]; Day 0, 10 ppm",845 per bird
same,"average bacteria count per bird, S. sonnei","[3]; Day 0, 20 ppm",8 per bird
same,"average bacteria count per bird, S. sonnei","[3]; Day 2, 10 ppm",962 per bird
same,"average bacteria count per bird, S. sonnei","[3]; Day 2, 20 ppm",12 per bird
same,"average bacteria count per bird, S. sonnei","[3]; Day 4, 10 ppm",1101 per bird
same,"average bacteria count per bird, S. sonnei","[3]; Day 4, 20 ppm",19 per bird
same,"average bacteria count per bird, S. sonnei","[3]; Day 6, 10 ppm",1288 per bird
same,"average bacteria count per bird, S. sonnei","[3]; Day 6, 20 ppm",37 per bird
same,"average bacteria count per bird, S. sonnei","[3]; Day 8, 10 ppm",1604 per bird
same,"average bacteria count per bird, S. sonnei","[3]; Day 8, 20 ppm",76 per bird
same,"average bacteria count per bird, S. sonnei","[3]; Day 10, 10 ppm",1954 per bird
